Each structure is given as a SMILES string.

We go through two compounds from US20040014730A1, “Formulations and methods of reducing toxicity of anti-infective agents” (priority 2002, published 2004).

Data set [1] relates to dogs. The conditions noted are these: dog, in vivo, iv.
For data set [2], the system named is humans. The conditions noted are these: human, in vivo.
Data set [3] is described as follows: Stability in acidic and basic aqueous media (proton NMR). The conditions noted are these: for stability in aqueous solution: pH 1.5 to 9.0. The class given is physicochemical. As for the experimental part: The stability of 2,2′-dithio-bis-ethane sulfonate at room temperature was determined at pH ranges of 1.5 to 9.0.
The following experiment was performed to determine the stability of 2,2′-dithio-bis-ethane sulfonate in acidic and basic aqueous media. In a typical experiment, 50 mg of 2,2′-dithio-bis-ethane sulfonate (as produced by using the above described method) was dissolved in one ml of water and the pH was adjusted to 1.5, 2.0, 3.0, 4.0, 5.0 and 6.0 by adding 1 N hydrochloric acid in water or the pH was adjusted to 8.0 and 9.0 by adding 1 N sodium hydroxide in water. The reaction mixture was stirred for 24 hours at room temperature, the water was removed at reduced pressure, dissolved in spectral grade D2O, and the proton NMR spectrum was recorded.
The stability of 2,2′-dithio-bis-ethane sulfonate at pH 1.5 was further studied by heating the reaction mixture to 100 degrees Celsius for 10 minutes.

Data set [4] deals with mice. To be noted: mouse, in vivo, iv.
The conditions of data set [5]: cited from earlier work.

For the compound `O=S(=O)([O-])CCSSCCS(=O)(=O)[O-].[Na+].[Na+]` [Dimesna, disodium 2,2′-dithiobis ethane sulfonate], the “dose administered intravenously with no adverse effects” value in data set [1] and in data set [4] was greater than 3750 mg/kg each time. For the same compound, the “dose administered with no adverse effects” value in data set [2] is “exceeding 25 g/m^2”. The “proton NMR spectrum after stirring in aqueous solution” value in data set [3] (50 mg in one ml water, pH 1.5, 2.0, 3.0, 4.0, 5.0, 6.0, 8.0 and 9.0, 24 hours, room temperature) is “no additional peaks were observed”. The “proton NMR spectrum after heating” value in data set [3] (pH 1.5, 100 degrees Celsius for 10 minutes) is given as “No change in the proton spectrum”. Further, the “stability in aqueous solution” value in data set [3] (room temperature, listed as 2,2′-Dithio-bis-ethane sulfonate) is on record as “very stable”; in data set [3] (room temperature, listed as 2,2′-dithio-bis-ethane sulfonate) it was “stable”.

For the compound `[Cl-].[Na+]` [common table salt], the “accepted oral LD50” value in data set [5] is 3750 mg/kg.
